Data from ChEMBL document CHEMBL2390878, “Novel 1H-imidazol-2-amine derivatives as potent and orally active vascular adhesion protein-1 (VAP-1) inhibitors for diabetic macular edema treatment” (Bioorg Med Chem, 2013).
pIC50: −log10 of the molar value. Activity calls are given as the source filed them. The rule behind the calls is not given here.

Experiments:
[1] = target: T1, Amine oxidase [copper-containing] 3 (Rattus norvegicus, UniProt O08590); test: Inhibition of rat VAP-1 expressed in CHO cells using [14C]-benzylamine as substrate preincubated for 30 mins prior to substrate addition measured after 1 hr by scintillation spectrometric analysis; format: cell-based
T1 sequence (O08590 whole entry): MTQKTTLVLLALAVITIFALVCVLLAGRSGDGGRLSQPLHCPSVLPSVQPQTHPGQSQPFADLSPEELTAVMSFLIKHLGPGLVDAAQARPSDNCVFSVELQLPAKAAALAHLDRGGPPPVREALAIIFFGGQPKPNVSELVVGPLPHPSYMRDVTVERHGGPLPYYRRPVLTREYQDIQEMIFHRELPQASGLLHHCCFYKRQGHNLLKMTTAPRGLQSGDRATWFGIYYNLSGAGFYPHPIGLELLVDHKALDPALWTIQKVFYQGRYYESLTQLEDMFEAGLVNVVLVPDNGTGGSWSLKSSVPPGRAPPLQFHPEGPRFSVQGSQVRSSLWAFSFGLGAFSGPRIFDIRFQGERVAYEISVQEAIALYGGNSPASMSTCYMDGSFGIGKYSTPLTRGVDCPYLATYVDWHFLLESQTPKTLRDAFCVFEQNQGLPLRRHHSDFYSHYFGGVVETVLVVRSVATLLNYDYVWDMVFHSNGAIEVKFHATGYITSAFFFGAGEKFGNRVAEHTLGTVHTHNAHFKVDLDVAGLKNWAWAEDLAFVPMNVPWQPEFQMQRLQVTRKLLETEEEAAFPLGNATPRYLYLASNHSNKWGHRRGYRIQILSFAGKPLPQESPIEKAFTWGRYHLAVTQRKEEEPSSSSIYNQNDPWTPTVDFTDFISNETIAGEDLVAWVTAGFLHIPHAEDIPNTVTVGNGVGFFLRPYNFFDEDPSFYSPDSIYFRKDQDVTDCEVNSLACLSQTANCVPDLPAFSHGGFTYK

[2] = target: T2, Amine oxidase [copper-containing] 3 (Homo sapiens, UniProt Q16853); test: Inhibition of human VAP-1 expressed in CHO cells using [14C]-benzylamine as substrate preincubated for 30 mins prior to substrate addition measured after 1 hr by scintillation spectrometric analysis; format: cell-based
T2 sequence (Q16853 whole entry): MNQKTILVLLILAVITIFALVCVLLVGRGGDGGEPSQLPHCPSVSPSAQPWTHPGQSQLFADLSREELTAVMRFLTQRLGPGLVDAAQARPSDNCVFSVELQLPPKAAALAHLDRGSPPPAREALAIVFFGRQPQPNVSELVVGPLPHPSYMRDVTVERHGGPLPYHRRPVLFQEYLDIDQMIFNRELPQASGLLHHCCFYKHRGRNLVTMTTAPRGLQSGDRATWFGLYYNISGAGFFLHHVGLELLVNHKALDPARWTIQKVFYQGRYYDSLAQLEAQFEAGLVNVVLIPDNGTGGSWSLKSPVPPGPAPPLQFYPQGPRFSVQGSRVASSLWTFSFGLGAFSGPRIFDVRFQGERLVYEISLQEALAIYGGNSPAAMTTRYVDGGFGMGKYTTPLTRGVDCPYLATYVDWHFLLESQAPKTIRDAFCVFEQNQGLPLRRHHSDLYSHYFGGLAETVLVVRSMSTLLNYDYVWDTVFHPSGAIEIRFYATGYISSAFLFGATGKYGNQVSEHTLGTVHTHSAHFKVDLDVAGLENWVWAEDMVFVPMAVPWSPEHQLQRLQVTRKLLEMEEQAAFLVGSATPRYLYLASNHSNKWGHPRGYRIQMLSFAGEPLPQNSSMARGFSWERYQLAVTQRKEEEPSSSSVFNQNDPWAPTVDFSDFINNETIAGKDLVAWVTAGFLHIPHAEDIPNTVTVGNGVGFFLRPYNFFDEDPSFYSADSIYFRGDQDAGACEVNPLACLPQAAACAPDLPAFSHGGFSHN

[3] = target: T3, Amine oxidase [flavin-containing] B (Homo sapiens, UniProt P27338); test: Inhibition of human recombinant MAO-B using benzylamine as substrate after 1 hr by fluorometric assay
T3 sequence (P27338 whole entry): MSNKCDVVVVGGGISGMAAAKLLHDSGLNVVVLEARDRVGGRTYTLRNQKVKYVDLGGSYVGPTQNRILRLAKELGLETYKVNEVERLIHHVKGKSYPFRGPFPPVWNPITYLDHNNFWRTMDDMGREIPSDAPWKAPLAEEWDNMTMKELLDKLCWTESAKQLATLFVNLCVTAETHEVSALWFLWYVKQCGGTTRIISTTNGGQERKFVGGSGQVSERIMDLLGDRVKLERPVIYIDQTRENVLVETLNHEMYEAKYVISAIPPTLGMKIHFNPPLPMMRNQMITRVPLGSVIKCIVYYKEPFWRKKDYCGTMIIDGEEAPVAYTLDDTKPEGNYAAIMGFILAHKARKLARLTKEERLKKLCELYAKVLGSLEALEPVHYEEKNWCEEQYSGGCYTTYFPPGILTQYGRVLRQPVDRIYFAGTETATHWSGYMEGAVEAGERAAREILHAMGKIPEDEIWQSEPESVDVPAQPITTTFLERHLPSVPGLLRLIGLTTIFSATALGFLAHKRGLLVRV

[4] = target: T4, Amine oxidase [flavin-containing] A (Homo sapiens, UniProt P21397); test: Inhibition of human recombinant MAO-A using 5-hydroxytryptamine as substrate after 1 hr by fluorometric assay
T4 sequence (P21397 whole entry): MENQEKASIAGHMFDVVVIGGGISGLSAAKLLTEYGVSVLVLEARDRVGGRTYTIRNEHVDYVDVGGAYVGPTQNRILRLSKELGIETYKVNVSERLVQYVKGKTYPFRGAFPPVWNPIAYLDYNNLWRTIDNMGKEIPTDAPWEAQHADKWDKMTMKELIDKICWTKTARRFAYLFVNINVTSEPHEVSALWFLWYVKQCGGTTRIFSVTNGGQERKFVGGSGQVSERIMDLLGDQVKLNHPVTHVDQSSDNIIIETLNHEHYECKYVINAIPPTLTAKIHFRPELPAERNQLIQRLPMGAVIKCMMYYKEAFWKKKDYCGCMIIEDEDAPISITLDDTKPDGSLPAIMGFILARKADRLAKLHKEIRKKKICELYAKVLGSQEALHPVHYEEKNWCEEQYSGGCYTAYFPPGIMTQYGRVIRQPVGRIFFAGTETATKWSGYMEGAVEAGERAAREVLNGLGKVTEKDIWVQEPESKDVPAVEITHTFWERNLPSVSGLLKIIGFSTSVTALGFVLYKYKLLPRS

Rattus norvegicus [5] = test: Inhibition of VAP-1 in streptozotocin-induced diabetic Sprague-Dawley rat plasma using [14C]-benzylamine as substrate at 10 mg/kg, po administered for 2 weeks after streptozotocin-challenge by scintillation spectrometric analysis; format: functional, organism-based; design: dose 10 mg/kg
Homo sapiens [6] = organism: Homo sapiens; test: Selectivity ratio of IC50 for human recombinant MAO-B to IC50 for human VAP-1
Homo sapiens [7] = organism: Homo sapiens; test: Selectivity ratio of IC50 for human recombinant MAO-A to IC50 for human VAP-1
Rattus norvegicus [8] = test: Inhibition of ocular permeability in streptozotocin-induced diabetic Sprague-Dawley rat at 10 mg/kg, po administered for 2 weeks after streptozotocin-challenge measured 24 hrs after final administration of compound; format: functional, organism-based; design: dose 10 mg/kg; details: Eye

| SMILES | pIC50 [1] | pIC50 [2] | other results |
| --- | --- | --- | --- |
| Cc1cccc2[nH]c(N)nc12 | 6.00 | < 4.00 |  |
| Nc1nc(-c2ccccc2)c[nH]1 | 4.36 | < 4.00 |  |
| Cc1ccc2nc(N)[nH]c2c1 | 5.03 | < 4.00 |  |
| NCc1nc2ccccc2[nH]1 | < 4.00 | < 4.00 |  |
| CC(=O)Nc1nc(CCc2ccc(-c3c[nH]c(N)n3)cc2)cs1 | 6.82 | 4.89 |  |
| c1ccc2[nH]cnc2c1 [BENZIMIDAZOLE] | < 4.00 | < 4.00 |  |
| N=C(N)Nc1ccccc1 [PHENYLGUANIDINE] | 4.11 | < 4.00 |  |
| Nc1cc2ccccc2[nH]1 | 4.20 | < 4.00 |  |
| Nc1nc2ccccc2[nH]1 | 6.00 | 5.39 |  |
| Nc1nc(Cc2ccccc2)c[nH]1 | 6.38 | 4.49 |  |
| CC(=O)Nc1nc(CCc2ccc(NC(=N)N)cc2)cs1 |  |  | pIC50 [3]: 4.22; pIC50 [4]: < 4.00 |
| CC(=O)Nc1nc(CCc2ccc(CCc3c[nH]c(N)n3)cc2)cs1 | 7.74 | 5.66 |  |
| Nc1ncc[nH]1 | 4.05 | < 4.00 |  |
| Cn1c(N)nc2ccccc21 | 4.10 | < 4.00 |  |
| NC1=NCCN1c1ccccc1 | < 4.00 | < 4.00 |  |
| Nc1ncc(CCc2ccccc2)[nH]1 | 5.32 | < 4.00 |  |
| c1ccc(NC2=NCCN2)cc1 | < 4.00 | < 4.00 |  |
| CC(=O)Nc1nc(CCc2ccc(Cc3c[nH]c(N)n3)cc2)cs1 | 8.29 | 7.72 | inhibition (Rattus norvegicus [5]): Active; Ratio IC50 (Homo sapiens [6]): > 580; pIC50 [3]: 4.96; Ratio IC50 (Homo sapiens [7]): > 580; pIC50 [4]: < 4.00; inhibition (Rattus norvegicus [8]): Active |
